# In ChEMBL document CHEMBL1201862, “PubChem BioAssay data set” (2004):
# Active and inactive are the calls of the source.
# Tests used:
# [1] = target: G-protein coupled receptor 55 (Homo sapiens, UniProt Q9Y2T6); assay: selective activators of receptor GPR55 – imaging, U2OS cells, beta-arrestin-GFP redistribution, primary screen (AID 1961); type: functional
# [2] = target: Potassium voltage-gated channel subfamily KQT member 2 (Rattus norvegicus, UniProt O88943); assay: blockers of KCNQ2 channel current – cell-based, automated electrophysiology, set II, rat KCNQ2, dose response (AID 588637); type: functional
# [3] = target: T1, Sentrin-specific protease 7 (Homo sapiens, UniProt Q9BQF6); type: functional;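 also: Luminescence-based dose-response confirmation of ultra-high-throughput screening hits, measuring inhibition of SENP7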
# T1 sequence (Q9BQF6 whole entry): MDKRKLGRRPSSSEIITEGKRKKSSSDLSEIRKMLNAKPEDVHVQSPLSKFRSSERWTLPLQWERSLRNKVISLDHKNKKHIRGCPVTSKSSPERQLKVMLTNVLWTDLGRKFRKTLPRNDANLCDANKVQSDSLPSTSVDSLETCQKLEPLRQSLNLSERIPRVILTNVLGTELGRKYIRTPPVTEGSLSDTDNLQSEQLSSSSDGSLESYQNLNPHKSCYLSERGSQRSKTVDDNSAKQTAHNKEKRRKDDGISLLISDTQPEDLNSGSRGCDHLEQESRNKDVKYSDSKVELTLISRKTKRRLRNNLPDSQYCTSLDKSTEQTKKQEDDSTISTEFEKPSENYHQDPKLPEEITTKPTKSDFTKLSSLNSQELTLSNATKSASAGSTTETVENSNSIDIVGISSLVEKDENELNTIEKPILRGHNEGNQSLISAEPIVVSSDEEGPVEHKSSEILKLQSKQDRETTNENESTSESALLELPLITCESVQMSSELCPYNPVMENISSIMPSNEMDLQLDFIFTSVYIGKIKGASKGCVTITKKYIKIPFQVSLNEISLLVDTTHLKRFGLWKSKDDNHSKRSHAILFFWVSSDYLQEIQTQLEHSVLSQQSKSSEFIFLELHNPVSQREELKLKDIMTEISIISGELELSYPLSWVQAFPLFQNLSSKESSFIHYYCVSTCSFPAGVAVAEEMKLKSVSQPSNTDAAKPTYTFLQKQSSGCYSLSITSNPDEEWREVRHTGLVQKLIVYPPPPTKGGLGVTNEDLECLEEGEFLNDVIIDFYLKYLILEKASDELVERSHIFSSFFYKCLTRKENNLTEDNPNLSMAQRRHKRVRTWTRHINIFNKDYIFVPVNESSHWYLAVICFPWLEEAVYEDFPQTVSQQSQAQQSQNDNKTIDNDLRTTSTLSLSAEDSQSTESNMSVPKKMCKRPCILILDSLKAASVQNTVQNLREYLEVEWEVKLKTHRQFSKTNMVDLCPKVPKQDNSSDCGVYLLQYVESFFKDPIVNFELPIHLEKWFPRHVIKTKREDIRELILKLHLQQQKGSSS
# [4] = target: T2, Sentrin-specific protease 8 (Homo sapiens, UniProt Q96LD8); type: functional;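 also: luminescence read-out of SENP8 inhibition, dose-response confirmation following an ultra-high-throughput screen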
# T2 sequence (Q96LD8 whole entry): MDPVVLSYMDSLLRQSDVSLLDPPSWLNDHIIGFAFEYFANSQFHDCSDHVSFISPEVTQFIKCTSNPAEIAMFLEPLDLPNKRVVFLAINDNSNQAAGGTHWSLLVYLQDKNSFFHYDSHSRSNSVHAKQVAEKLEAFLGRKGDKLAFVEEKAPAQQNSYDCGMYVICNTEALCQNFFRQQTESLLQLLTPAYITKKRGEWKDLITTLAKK
# [5] = target: T3, Caspase-3 (Homo sapiens, UniProt P42574); type: functional;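 also: Dose-response selectivity test against caspase-3 for candidate inhibitors of sentrin-specific proteases (SENPs)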
# T3 sequence (P42574 whole entry): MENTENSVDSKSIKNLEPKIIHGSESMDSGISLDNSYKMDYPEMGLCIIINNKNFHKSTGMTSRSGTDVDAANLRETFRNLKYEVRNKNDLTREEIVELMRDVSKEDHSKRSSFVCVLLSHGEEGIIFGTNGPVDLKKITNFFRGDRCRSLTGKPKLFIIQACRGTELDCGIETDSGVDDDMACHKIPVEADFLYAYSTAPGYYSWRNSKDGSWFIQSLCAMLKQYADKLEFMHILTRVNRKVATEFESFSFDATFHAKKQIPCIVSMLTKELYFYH
# [6] = target: T4, Sentrin-specific protease 6 (Homo sapiens, UniProt Q9GZR1); type: functional;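 also: Luminescence-based dose-response confirmatory assay of SENP6 inhibition, following up an ultra-high-throughput screen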
# T4 sequence (Q9GZR1 whole entry): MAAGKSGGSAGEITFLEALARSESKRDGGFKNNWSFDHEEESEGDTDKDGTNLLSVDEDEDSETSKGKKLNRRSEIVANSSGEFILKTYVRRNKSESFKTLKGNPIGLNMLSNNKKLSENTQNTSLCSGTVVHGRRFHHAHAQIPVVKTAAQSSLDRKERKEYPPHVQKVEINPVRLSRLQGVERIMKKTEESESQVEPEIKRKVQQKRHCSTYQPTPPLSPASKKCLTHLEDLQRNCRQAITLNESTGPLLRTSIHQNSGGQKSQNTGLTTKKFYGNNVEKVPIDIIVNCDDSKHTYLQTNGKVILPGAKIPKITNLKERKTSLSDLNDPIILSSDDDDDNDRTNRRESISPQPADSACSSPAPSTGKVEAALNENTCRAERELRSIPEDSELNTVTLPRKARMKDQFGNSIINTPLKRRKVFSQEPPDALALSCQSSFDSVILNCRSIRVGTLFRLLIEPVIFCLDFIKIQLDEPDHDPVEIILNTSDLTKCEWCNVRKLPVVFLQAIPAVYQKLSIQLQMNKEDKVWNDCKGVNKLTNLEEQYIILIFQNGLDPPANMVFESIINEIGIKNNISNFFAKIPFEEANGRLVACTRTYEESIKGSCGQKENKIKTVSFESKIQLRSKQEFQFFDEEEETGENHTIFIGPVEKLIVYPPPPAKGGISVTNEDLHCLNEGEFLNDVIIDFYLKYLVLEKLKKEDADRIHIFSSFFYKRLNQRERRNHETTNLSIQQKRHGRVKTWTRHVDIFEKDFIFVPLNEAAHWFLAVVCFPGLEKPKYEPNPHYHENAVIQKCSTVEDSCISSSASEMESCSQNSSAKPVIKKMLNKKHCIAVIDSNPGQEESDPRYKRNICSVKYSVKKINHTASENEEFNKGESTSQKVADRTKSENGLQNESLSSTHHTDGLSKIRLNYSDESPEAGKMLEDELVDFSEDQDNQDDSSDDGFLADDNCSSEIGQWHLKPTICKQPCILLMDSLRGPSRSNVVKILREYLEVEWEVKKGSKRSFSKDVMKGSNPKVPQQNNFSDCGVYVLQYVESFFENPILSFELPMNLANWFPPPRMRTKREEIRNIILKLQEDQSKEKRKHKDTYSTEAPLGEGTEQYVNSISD
# [7] = inhibition of ARNT PAS-B/TACC3 complex formation – biochemical, AlphaScreen, cherry-picked samples, confirmation (AID 651703); type: functional, Homo sapiens;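 also: His-tagged ARNT PAS-B domain paired with GST-TACC3 E629A dimer coactivator fragment; potency of inhibitors that break up the complex and lower AlphaScreen signal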
# [8] = target: T5, Rac GTPase-activating protein 1 (Homo sapiens, UniProt Q9H0H5); assay: blockers of MgcRacGAP-driven Rac1 GTP hydrolysis – biochemical, ADP Hunter fluorescence, primary and confirmatory, confirmation (AID 624330); type: functional
# T5 sequence (Q9H0H5 whole entry): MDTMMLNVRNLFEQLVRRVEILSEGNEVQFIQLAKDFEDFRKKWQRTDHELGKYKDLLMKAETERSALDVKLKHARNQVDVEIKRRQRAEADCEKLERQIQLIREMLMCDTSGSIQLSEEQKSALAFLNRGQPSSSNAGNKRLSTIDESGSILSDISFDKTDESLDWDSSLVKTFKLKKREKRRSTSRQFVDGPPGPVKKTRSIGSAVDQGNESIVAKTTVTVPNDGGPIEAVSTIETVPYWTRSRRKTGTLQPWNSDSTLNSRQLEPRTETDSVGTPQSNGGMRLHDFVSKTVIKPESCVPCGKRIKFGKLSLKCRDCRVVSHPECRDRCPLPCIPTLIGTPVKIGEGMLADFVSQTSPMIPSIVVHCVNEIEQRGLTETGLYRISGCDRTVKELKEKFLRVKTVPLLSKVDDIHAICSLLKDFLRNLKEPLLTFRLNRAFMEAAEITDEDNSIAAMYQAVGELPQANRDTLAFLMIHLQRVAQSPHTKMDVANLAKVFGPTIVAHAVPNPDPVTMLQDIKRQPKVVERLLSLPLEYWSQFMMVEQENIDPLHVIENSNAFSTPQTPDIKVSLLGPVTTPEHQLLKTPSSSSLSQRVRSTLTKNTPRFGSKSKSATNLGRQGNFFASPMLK
# [9] = target: Benomyl/methotrexate resistance protein (Candida albicans, UniProt P28873); assay: Candida albicans Mdr1 pump inhibition curves – singleplex, Cherry Pick1 hits, dose response (AID 588608); type: functional
# [10] = target: T6, Low molecular weight phosphotyrosine protein phosphatase (Homo sapiens, UniProt P24666); type: functional; details: read-out: IC50_Mean
# T6 sequence (P24666 whole entry): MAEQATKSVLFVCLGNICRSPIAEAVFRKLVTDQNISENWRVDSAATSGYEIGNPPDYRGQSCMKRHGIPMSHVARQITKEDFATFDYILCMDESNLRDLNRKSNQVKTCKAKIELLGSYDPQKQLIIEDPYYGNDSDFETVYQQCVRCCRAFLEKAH
# [11] = target: T6, Low molecular weight phosphotyrosine protein phosphatase; type: functional; details: read-out: IC50_Mean; remark: listed apart in the source
# [12] = test system: Vero; assay: viability loss in Vero cells – cell-based, plate reader, cherry-pick samples, cytotoxicity control, dose response (AID 687020); type: functional; details: Chlorocebus sabaeus
# [13] = target: T7, Endoribonuclease toxin MazF (Escherichia coli K-12, UniProt P0AE70); assay: activation of MazEF endoribonuclease cleavage – biochemical, fluorescence, single-stranded RNA substrate, uHTS hits, dose response (AID 588481); type: functional
# T7 sequence (P0AE70 whole entry): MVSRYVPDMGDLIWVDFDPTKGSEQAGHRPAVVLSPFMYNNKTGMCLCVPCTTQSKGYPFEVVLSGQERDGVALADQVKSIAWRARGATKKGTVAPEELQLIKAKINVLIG
# [14] = target: T7, Endoribonuclease toxin MazF; assay: substrate-only fluorescence increase artefacts – biochemical, single-stranded RNase substrate, counter-screen for MazEF activator project, dose response (AID 588502); type: functional
# [15] = viability loss in HeLa cells – cytotoxicity control for MgcRacGAP inhibitor project, dose response (AID 624300); type: functional
# [16] = target: Beta-galactosidase (Escherichia coli, UniProt Q8VNN2); assay: Dose response counterscreen for EBI2 assay utilizing the enzyme, b-galactosidase.; type: functional
# [17] = target: T8, Probable nicotinate-nucleotide adenylyltransferase (Staphylococcus aureus (strain N315), UniProt P65502); type: functional, Staphylococcus aureus subsp. aureus N315;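 as to IC50 Mean: confirmatory dose-response retesting of NadD inhibitor hits first found in an ultra-high-throughput screen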
# [18] = target: T8, Probable nicotinate-nucleotide adenylyltransferase; type: functional, Staphylococcus aureus subsp. aureus N315; details: read-out: IC50_Mean
# [19] = Fluorescence-based cell-based high throughput dose response assay for inhibitors of the interaction of nucleotide-binding oligomerization domain containing 2 (NOD2) and the receptor-interacting serine-threonine kinase 2 (RIPK2).; type: functional, Homo sapiens
# [20] = target: Tyrosine-protein phosphatase non-receptor type 11 (Homo sapiens, UniProt Q06124); assay: PTPN11 enzyme inhibitors – biochemical, selectivity assay for STEP inhibitor project, dose response (AID 602367); type: functional; details: read-out: IC50_Mean
# [21] = target: Dual specificity protein phosphatase 3 (Homo sapiens, UniProt P51452); assay: VHR phosphatase inhibition, dose response, selectivity assay for STEP inhibitor project, biochemical (AID 602374); type: functional; details: read-out: IC50_Mean
# [22] = target: Tyrosine-protein phosphatase non-receptor type 5 (Homo sapiens, UniProt P54829); assay: PTPN5 enzyme inhibition – biochemical, fluorescence intensity, uHTS hits, confirmation (AID 602372); type: functional; details: read-out: IC50_Mean
# [23] = test system: HEK293; assay: cells; details: Homo sapiens
# [24] = test system: HEK293; assay: cells; details: Homo sapiens; remark: listed apart in the source
# T8 sequence (P65502 whole entry): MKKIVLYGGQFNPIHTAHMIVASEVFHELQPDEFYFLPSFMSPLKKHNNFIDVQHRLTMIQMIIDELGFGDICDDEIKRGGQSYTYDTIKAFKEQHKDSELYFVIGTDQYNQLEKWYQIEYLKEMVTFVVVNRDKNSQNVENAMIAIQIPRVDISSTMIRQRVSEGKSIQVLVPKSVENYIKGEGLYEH
# Potassium voltage-gated channel subfamily KQT member 2, sequence (O88943 whole entry): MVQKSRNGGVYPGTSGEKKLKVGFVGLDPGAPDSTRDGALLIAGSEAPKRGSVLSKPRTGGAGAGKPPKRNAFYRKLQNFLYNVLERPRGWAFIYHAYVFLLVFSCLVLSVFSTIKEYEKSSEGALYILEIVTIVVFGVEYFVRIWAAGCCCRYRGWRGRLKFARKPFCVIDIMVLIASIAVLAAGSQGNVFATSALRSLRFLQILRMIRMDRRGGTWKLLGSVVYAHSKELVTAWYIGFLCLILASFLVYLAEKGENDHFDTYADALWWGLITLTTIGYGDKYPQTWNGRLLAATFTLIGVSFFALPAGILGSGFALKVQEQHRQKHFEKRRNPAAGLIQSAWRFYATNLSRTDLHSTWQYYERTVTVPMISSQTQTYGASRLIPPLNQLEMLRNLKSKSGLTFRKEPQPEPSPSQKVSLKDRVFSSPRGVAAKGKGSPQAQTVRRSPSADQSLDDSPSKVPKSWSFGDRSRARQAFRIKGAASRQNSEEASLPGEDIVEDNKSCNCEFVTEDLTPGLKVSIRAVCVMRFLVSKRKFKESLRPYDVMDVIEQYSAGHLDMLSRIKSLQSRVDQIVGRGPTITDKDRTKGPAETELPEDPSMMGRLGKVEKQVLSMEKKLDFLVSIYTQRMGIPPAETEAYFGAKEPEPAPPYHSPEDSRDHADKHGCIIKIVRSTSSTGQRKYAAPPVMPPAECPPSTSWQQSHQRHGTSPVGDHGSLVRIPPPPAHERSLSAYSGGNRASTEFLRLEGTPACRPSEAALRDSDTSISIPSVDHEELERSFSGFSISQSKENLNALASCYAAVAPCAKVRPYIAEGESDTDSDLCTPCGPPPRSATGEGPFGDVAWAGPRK
# Benomyl/methotrexate resistance protein, sequence (P28873 whole entry): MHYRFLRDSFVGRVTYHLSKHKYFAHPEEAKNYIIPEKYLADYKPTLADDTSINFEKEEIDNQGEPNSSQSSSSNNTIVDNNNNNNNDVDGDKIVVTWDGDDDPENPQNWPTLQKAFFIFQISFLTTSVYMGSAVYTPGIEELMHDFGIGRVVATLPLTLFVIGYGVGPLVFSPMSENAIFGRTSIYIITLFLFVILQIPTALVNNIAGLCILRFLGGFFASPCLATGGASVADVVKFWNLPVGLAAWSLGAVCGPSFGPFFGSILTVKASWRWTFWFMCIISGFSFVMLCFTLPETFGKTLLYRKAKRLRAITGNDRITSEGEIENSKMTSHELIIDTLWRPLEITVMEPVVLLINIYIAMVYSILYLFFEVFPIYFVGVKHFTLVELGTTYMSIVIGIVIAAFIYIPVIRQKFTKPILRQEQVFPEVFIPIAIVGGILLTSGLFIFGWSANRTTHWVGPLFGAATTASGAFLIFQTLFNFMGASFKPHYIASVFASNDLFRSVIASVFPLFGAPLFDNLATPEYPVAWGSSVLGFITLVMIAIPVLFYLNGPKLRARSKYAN
# Tyrosine-protein phosphatase non-receptor type 5, sequence (P54829 whole entry): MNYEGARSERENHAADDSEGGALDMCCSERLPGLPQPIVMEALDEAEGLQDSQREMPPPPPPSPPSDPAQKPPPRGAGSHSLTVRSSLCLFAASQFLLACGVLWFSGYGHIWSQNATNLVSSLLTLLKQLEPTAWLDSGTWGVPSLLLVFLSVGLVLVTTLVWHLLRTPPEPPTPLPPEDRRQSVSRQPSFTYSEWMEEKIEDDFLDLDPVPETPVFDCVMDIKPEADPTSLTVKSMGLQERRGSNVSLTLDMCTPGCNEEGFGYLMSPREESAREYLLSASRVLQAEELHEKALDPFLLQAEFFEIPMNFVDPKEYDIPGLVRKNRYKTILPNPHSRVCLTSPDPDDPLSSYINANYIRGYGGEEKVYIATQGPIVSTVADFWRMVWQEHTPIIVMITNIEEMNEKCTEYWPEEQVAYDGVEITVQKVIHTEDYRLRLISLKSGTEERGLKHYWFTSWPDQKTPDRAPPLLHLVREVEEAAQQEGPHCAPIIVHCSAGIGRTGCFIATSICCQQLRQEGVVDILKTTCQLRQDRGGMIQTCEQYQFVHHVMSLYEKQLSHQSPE
# Tyrosine-protein phosphatase non-receptor type 11, sequence (Q06124 whole entry): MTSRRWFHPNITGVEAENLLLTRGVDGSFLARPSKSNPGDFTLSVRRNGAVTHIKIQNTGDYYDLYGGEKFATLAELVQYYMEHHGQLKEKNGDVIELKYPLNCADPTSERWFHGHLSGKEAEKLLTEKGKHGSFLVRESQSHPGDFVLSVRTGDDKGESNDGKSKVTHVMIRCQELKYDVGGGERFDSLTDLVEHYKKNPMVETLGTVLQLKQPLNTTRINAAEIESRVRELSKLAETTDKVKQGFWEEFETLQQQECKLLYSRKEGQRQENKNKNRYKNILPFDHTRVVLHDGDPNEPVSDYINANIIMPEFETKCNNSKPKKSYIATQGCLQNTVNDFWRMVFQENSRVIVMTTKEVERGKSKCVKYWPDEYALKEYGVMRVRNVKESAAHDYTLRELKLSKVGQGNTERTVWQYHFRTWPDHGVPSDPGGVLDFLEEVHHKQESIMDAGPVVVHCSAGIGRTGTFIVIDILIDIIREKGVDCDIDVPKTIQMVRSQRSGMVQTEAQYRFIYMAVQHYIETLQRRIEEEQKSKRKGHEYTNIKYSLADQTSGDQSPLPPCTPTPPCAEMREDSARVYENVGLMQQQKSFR
# Dual specificity protein phosphatase 3, sequence (P51452 whole entry): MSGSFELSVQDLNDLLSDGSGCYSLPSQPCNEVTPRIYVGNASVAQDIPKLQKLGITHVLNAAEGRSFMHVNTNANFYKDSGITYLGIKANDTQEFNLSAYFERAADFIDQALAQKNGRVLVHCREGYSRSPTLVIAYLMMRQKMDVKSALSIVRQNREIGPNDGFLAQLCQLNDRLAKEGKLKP
# G-protein coupled receptor 55, sequence (Q9Y2T6 whole entry): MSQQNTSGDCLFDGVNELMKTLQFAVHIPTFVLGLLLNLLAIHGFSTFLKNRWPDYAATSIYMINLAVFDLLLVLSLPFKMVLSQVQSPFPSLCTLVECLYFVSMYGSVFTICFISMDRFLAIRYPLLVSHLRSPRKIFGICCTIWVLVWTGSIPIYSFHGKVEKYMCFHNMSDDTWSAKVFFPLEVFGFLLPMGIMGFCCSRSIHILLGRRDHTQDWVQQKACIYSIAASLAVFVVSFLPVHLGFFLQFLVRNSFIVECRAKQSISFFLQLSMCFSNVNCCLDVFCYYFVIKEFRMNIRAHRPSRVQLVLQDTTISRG
# Beta-galactosidase, sequence (Q8VNN2 whole entry): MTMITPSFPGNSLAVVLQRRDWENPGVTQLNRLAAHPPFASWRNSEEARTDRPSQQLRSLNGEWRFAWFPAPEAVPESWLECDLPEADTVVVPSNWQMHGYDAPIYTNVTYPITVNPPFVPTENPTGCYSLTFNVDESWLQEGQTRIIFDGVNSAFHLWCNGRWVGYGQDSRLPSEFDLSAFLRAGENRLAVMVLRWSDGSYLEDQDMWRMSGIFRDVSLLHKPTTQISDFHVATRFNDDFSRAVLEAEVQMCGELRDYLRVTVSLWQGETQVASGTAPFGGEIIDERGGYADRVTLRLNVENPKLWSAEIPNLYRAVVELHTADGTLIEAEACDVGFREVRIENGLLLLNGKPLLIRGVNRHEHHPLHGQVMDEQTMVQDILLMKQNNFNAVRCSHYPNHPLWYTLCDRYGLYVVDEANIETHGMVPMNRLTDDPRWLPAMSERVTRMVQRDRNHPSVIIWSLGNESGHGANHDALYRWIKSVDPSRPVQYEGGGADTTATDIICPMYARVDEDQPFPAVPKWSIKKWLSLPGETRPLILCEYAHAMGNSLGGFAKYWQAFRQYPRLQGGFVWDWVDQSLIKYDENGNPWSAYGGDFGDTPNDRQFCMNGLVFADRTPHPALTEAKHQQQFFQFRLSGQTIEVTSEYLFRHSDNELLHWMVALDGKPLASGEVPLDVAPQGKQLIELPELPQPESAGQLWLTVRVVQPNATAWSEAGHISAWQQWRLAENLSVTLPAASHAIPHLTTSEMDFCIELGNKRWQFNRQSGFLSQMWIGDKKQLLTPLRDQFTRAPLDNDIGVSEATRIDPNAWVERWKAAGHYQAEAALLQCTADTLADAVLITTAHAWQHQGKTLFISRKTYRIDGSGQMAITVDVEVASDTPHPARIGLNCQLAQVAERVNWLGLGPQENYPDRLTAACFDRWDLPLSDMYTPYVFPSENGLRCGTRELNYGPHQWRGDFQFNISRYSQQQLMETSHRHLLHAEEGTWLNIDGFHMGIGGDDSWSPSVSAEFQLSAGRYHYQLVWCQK
compound,measurement,setting,value
CCOC(=O)N1CCC(N(CCOC)C(=O)Nc2ccc(Cl)c(Cl)c2)CC1,EC50,[1],2.65 µM (active)
same,IC50,[2],0.99 µM (active)
O=C1/C(=C/c2cccs2)Sc2ccccc21,IC50,[3],2.11 µM (active)
same,IC50,[4],2.41 µM (active)
same,IC50,[5],3.44 µM (active)
same,IC50,[6],2.36 µM (active)
O=C(CCN1C(=O)c2cccnc2C1=O)NC1CCCCCC1,AC50,[7],76.9 µM (active)
COCCn1c(=S)[nH]c2sc3c(c2c1=O)CCCC3,IC50,[8],38.7 µM (active)
same,EC50,[9],0.012 µM (active)
COc1cccc(Nc2nc(-c3ccc4c(c3)OCCO4)cs2)c1,IC50,[3],7.97 µM (active)
same,IC50,[4],30.3 µM (active)
same,IC50,[5],40.2 µM (active)
same,IC50,[6],20.3 µM (active)
O=C(CSc1nc(-c2ccccc2)nc2ccc(F)cc12)Nc1ccc(C(=O)O)cc1,IC50,[10],25.9 µM (inactive)
same,IC50,[11],57.3 µM (inactive)
CC1Oc2ccccc2N(CC(=O)N(Cc2ccccc2)Cc2ccccn2)C1=O (stereo not drawn),IC50,[2],1 µM (active)
CN(CC(=O)Nc1cccc(F)c1)C(=O)c1ccccc1CCc1ccccc1,AC50,[12],15.3 µM (active)
Cn1c(CNc2ccc(O)cc2)nc2ccccc21,EC50,[13],> 99 µM (inactive)
same,EC50,[14],> 99 µM (inactive)
CC(=O)Nc1cccc(NC(=O)c2cccc(-c3ccc(O)cc3)c2)c1,IC50,[8],46.4 µM (active)
same,CC50,[15],100 µM (active)
COc1c(Cl)cc(Br)c(OC)c1C(=O)NC(=O)Nc1nc(C)cc(C)n1,AC50,[12],29.2 µM (active)
CCOC(=O)N1CCN(C(=O)c2cc3c(s2)-c2ccccc2OC3)CC1,IC50,[16],> 80 µM (inactive)
Cc1ccc(Cn2c(C3CCCN3c3nc(-c4cc(Cl)c(N)c(Cl)c4)cs3)nc3cc(Cl)c(Cl)cc32)cc1 (stereo not drawn),IC50,[17],11.1 µM (active)
same,IC50,[18],26.4 µM (active)
CC(=O)O[C@H]1C[C@@H]2OC3C=C(C)CCC3(C)[C@@]1(C)[C@@]21CO1 (stereo partly drawn),IC50,[19],49.8 µM (inactive)
O=C(COc1ccc(/C=N/NC(=O)c2ccncc2)cc1)Nc1ccc([N+](=O)[O-])cc1,IC50,[20],6.08 µM (active)
same,IC50,[21],21.7 µM (inactive)
same,IC50,[22],> 80 µM (inactive)
COc1ccc(/N=c2\oc3cc(O)ccc3cc2C(=O)NCC2CCCO2)c(OC)c1 (stereo not drawn),EC50,[23],> 59.6 µM (inactive)
same,EC50,[24],> 59.6 µM (inactive)
same,EC50,[13],> 99 µM (inactive)
same,EC50,[14],> 99 µM (inactive)
O=c1/c(=C\c2ccc3c(c2)OCO3)sc2n1CCCN=2,IC50,[3],12.6 µM (active)
same,IC50,[4],34.1 µM (active)
same,IC50,[5],17 µM (active)
same,IC50,[6],33.6 µM (active)
O=C(CSc1cccc2cccnc12)N/N=C/c1ccncc1,AC50,[7],110 µM (active)
